Assay: Antiproliferative activity against mouse ASZ cells assessed as reduction in cell viability after 72 hrs by MTS/PMS assay
Type: functional
For `O=C1CC/C=C/CC(c2ccc(-c3ccncc3)cc2)C(=O)OCCCO1` (stereo not drawn), the GI50 was at least 75 µM.
Compound `CN(C)c1cccc(-c2ccc(C3C/C=C/CCC(=O)OCCCOC3=O)cc2)c1` (stereo not drawn) has a GI50 of at least 75 µM.
Work on `O=C1CC/C=C/CC(c2ccc(-c3cccnc3)cc2)C(=O)OCCCO1` (stereo not drawn) yielded a GI50 of 40.9 µM.
Compound `Cc1noc(C)c1-c1ccc(C2C/C=C/CCC(=O)OCCCOC2=O)cc1` (stereo not drawn) has a GI50 of at least 75 µM.
Compound `O=C1CC/C=C/CC(c2ccc(-c3cnn(Cc4ccccc4)c3)cc2)C(=O)OCCCO1` (stereo not drawn) has a GI50 of at least 100 µM.
Compound `COc1cc(-c2ccc(C3C/C=C/CCC(=O)OCCCOC3=O)cc2)c(OC)nn1` (stereo not drawn) has a GI50 of 19.7 µM.
Compound `O=C1CC/C=C/CC(c2ccc(-c3cccc(O)c3)cc2)C(=O)OCCCO1` (stereo not drawn) has a GI50 of 12.1 µM.
With `O=C1CC/C=C/CC(c2ccc(-c3ccccc3)cc2)C(=O)OCCCO1` (stereo not drawn) the GI50 was at least 100 µM.

— ChEMBL document CHEMBL4665873, “Exploring the physicochemical and antiproliferative properties of biaryl-linked [13]-macrodilactones” (2020)
